Several values for one entry are separate records, joined by “and”; a condition that tells them apart may be missing. Equal entries are not always repeated.
Assays:
human α-thrombin = human α-thrombin (Homo sapiens, UniProt P00734); test: Protease inhibition, Ki for human α-thrombin (fluorogenic substrate Z-Gly-Gly-Arg-AMC); type: biochemical; conditions: replicates R1-R3
Procedure, shortened: (§1)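 Inhibition was measured as AMC fluorescence from 50 μM substrate, monitored for 30 min at 25 °C, relative to a peptide-free control. Human and rat enzymes were present at 2 nM and 3 nM final, respectively, in 50 mM Tris-HCl pH 7.4, 150 mM NaCl, 10 mM MgCl2, 1 mM CaCl2. Ki derives from fitted IC50 via Cheng–Prusoff.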

[1] = Peptide stability in simulated intestinal fluid (SIF); type: in vitro ADME, porcine; conditions: simulated gi fluid; 8 h, 37 °C, pH 6.8; read-out: Proteolytic stability: SIF (8 h) % remaining
Procedure, shortened: (§2)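 Peptide from a 1 mM DMSO stock was added to fluid pre-warmed at 37 °C. SGF was pH 1.2 NaCl with porcine pepsin (0.32 g per 100 ml), and SIF was pH 6.8 potassium phosphate with porcine pancreatin (1 g per 100 ml). Supernatant peptide was quantified by LC–MS, with residual expressed as T1/T0.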

porcine pancreatin = test: as above; type: in vitro ADME; conditions: after 8 h vs 0 h (TIC); for SIF stability, Residual peptide Average: average of R1-R3
Procedure, shortened: as §2

[2] = Passive artificial membrane permeability (PAMPA); conditions: for PAMPA permeability: % permeability: 50 μM, 12–18 h, acceptor concentration relative to equilibrium; for Papp at 50 μM / Permeability% Average / Permeability% R1 / Permeability% R3: PAMPA; for Papp at 50 μM: pH 7.4; for Permeability% Average: average of R1-R3; for Permeability% R1: replicate R1; for Permeability% R1 / Permeability% R3: TIC of top well sample relative to sample at theoretical equilibrium; for Permeability% R3: replicate R3
porcine pepsin = target: T1, porcine pepsin (Sus scrofa, UniProt P00791); test: Peptide stability in simulated gastric fluid (SGF); type: in vitro ADME; conditions: for SGF stability, Residual peptide Average / SGF stability, Residual peptide: after 8 h vs 0 h (TIC); for SGF stability, Residual peptide Average: average of R1-R3; for SGF stability, Residual peptide: single replicates R1-R3; for remaining at 8 h: simulated gi fluid, 37 °C, pH 1.2, read-out: Proteolytic stability: SGF (8 h) % remaining
T1 construct: 0.32 g of porcine pepsin (Sigma-Aldrich, P7125) was dissolved under gentle agitation; purchased Sigma-Aldrich P7125
Procedure, shortened: as §2

rat α-thrombin = target: T2, rat α-thrombin (Rattus norvegicus, UniProt P18292); test: Protease inhibition, Ki for rat α-thrombin (fluorogenic substrate Z-Gly-Gly-Arg-AMC); type: biochemical; conditions: replicates R1-R3
T2 construct: rat α-thrombin (Molecular Innovations) were used at final concentrations of 2 nM and 3 nM; purchased Molecular Innovations
Procedure, shortened: as §1

[3] = Metabolic stability in rat liver microsomes (RLMs); conditions: rat, microsomes
[4] = peptide 1.33E+02 uM, slope of proteolytic substrate cleavage over time
[5] = CL (ul/min/mg protein) R1, RLM CL, replicate R1
[6] = CL (ul/min/mg protein) R2, RLM CL, replicate R2
[7] = CL (ul/min/mg protein) R3, RLM CL, replicate R3
[8] = Half Life (min) R1, RLM metabolic stability, replicate R1, 0-60 min
[9] = Half Life (min) R2, RLM metabolic stability, replicate R2, 0-60 min
[10] = Half Life (min) R3, RLM metabolic stability, replicate R3, 0-60 min
[11] = Metabolic stability: Half life T1/2 (min), RLMs, mean and SD, three measurements
[12] = Metabolic stability: RLM CL (ul/min/mg), RLMs, mean and SD, three measurements

T1 sequence (P00791 60-385): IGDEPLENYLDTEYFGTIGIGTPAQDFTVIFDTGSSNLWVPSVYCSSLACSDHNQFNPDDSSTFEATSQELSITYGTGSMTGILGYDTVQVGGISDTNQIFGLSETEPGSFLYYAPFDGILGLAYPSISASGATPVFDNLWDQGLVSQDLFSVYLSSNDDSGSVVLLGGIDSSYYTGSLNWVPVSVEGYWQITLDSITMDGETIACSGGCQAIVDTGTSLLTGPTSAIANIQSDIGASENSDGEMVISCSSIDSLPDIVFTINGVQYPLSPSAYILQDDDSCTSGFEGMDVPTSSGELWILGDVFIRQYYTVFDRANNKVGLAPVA

## O=C(N[C@H]1CSCc2cccc(n2)CSCCNC(=O)[C@H](Cc2ccccn2)NC(=O)C2(CCCC2)NC1=O)c1ccc(Cl)s1 [compound 28]
Human α-thrombin; peptide 1.02E-03 uM
  Human alpha thrombin inhibition, slope normalized to DMSO: 100.6 and 102.2 and 99.4
Human α-thrombin; peptide 1.04E+00 uM
  Human alpha thrombin inhibition, slope normalized to DMSO: 91.1 and 87.4 and 92.0
Human α-thrombin; peptide 1.27E-04 uM
  Human alpha thrombin inhibition, slope normalized to DMSO: 100.4 and 99.0 and 100.8
Human α-thrombin; peptide 1.30E-01 uM
  Human alpha thrombin inhibition, slope normalized to DMSO: 103.2 and 98.5 and 101.7
Human α-thrombin; [4]
  Human alpha thrombin inhibition, slope normalized to DMSO: 16.8 and 18.7 and 23.0
Human α-thrombin; peptide 1.63E-02 uM
  Human alpha thrombin inhibition, slope normalized to DMSO: 79.4 and 98.4 and 92.1
Human α-thrombin; peptide 1.67E+01 uM
  Human alpha thrombin inhibition, slope normalized to DMSO: 53.5 and 53.3 and 56.4
Human α-thrombin; peptide 2.03E-03 uM
  Human alpha thrombin inhibition, slope normalized to DMSO: 77.9 and 96.7 and 93.1
Human α-thrombin; peptide 2.08E+00 uM
  Human alpha thrombin inhibition, slope normalized to DMSO: 88.5 and 72.9 and 90.5
Human α-thrombin; peptide 2.54E-04 uM
  Human alpha thrombin inhibition, slope normalized to DMSO: 100.6 and 92.1 and 94.0
Human α-thrombin; peptide 2.60E-01 uM
  Human alpha thrombin inhibition, slope normalized to DMSO: 98.5 and 95.3 and 96.4
Human α-thrombin; peptide 3.18E-05 uM
  Human alpha thrombin inhibition, slope normalized to DMSO: 102.4 and 100.9 (2×)
Human α-thrombin; peptide 3.26E-02 uM
  Human alpha thrombin inhibition, slope normalized to DMSO: 99.5 and 98.1 and 103.6
Human α-thrombin; peptide 3.33E+01 uM
  Human alpha thrombin inhibition, slope normalized to DMSO: 35.9 and 38.0 and 41.6
Human α-thrombin; peptide 4.07E-03 uM
  Human alpha thrombin inhibition, slope normalized to DMSO: 103.3 and 98.8 and 95.5
Human α-thrombin; peptide 4.17E+00 uM
  Human alpha thrombin inhibition, slope normalized to DMSO: 79.3 and 79.5 and 79.0
Human α-thrombin; peptide 5.09E-04 uM
  Human alpha thrombin inhibition, slope normalized to DMSO: 102.1 and 100.7 and 91.1
Human α-thrombin; peptide 5.21E-01 uM
  Human alpha thrombin inhibition, slope normalized to DMSO: 99.8 and 93.6 and 95.9
Human α-thrombin; peptide 6.36E-05 uM
  Human alpha thrombin inhibition, slope normalized to DMSO: 102.4 and 110.3 and 102.0
Human α-thrombin; peptide 6.51E-02 uM
  Human alpha thrombin inhibition, slope normalized to DMSO: 102.8 and 95.7 and 101.3
Human α-thrombin; peptide 6.67E+01 uM
  Human alpha thrombin inhibition, slope normalized to DMSO: 23.2 and 24.0 and 29.0
Human α-thrombin; peptide 8.14E-03 uM
  Human alpha thrombin inhibition, slope normalized to DMSO: 99.1 and 108.8 and 87.5
Human α-thrombin; peptide 8.33E+00 uM
  Human alpha thrombin inhibition, slope normalized to DMSO: 72.2 and 85.5 and 69.3
[1]
  remaining at 8 h: 94 ± 12%
Porcine pancreatin
  SIF stability, Residual peptide Average: 94.01
Porcine pancreatin; single replicates R1-R3
  SIF stability, Residual peptide: 86.19 and 87.95 and 107.89
[2]
  PAMPA permeability: % permeability: 30 ± 7%
  Papp at 50 μM: 2.29 ×10⁻⁶ cm/s
  Permeability% Average: 29.5%
  Permeability% R1: 35.05%
  Permeability% R3: 31.19%
Porcine pepsin
  SGF stability, Residual peptide Average: 95.21
  SGF stability, Residual peptide: 100.04 and 92.83 and 92.76
  remaining at 8 h: 95 ± 4%
Rat α-thrombin; [4]
  Rat alpha thrombin inhibition, slope normalized to DMSO: 12.2 (2×) and 11.8
Rat α-thrombin; peptide 1.67E+01 uM
  Rat alpha thrombin inhibition, slope normalized to DMSO: 38.3 and 37.3 and 38.4
Rat α-thrombin; peptide 2.08E+00 uM
  Rat alpha thrombin inhibition, slope normalized to DMSO: 79.7 and 78.5 and 79.5
Rat α-thrombin; peptide 3.33E+01 uM
  Rat alpha thrombin inhibition, slope normalized to DMSO: 24.3 and 23.3 and 23.8
Rat α-thrombin; peptide 4.17E+00 uM
  Rat alpha thrombin inhibition, slope normalized to DMSO: 68.5 and 68.7 and 67.7
Rat α-thrombin; peptide 6.67E+01 uM
  Rat alpha thrombin inhibition, slope normalized to DMSO: 14.7 and 14.3 and 13.4
Rat α-thrombin; peptide 8.33E+00 uM
  Rat alpha thrombin inhibition, slope normalized to DMSO: 56.8 and 54.3 and 57.8
[3]; [5]
  microsomal CLint: 81.1 µL/min/mg
[3]; [6]
  microsomal CLint: 96.1 µL/min/mg
[3]; [7]
  microsomal CLint: 78 µL/min/mg
[3]; [8]
  half-life: 17.1 min
[3]; [9]
  half-life: 14.4 min
[3]; [10]
  half-life: 17.8 min
[3]; [11]
  half-life: 16.4 ± 1.4 min
[3]; [12]
  microsomal CLint: 85 ± 8 µL/min/mg

## O=C(N[C@H]1CSCCS(=O)(=O)CCSCCNC(=O)C2(CC2)CNC(=O)[C@H](Cc2ccccc2)NC1=O)c1ccc(Cl)s1 [compound 16]
Human α-thrombin; peptide 1.02E-03 uM
  Human alpha thrombin inhibition, slope normalized to DMSO: 95.7 (2×) and 101.7
Human α-thrombin; peptide 1.04E+00 uM
  Human alpha thrombin inhibition, slope normalized to DMSO: 62.0 and 61.5 and 59.7
Human α-thrombin; peptide 1.27E-04 uM
  Human alpha thrombin inhibition, slope normalized to DMSO: 99.4 and 101.3 and 98.3
Human α-thrombin; peptide 1.30E-01 uM
  Human alpha thrombin inhibition, slope normalized to DMSO: 89.0 and 89.6 and 91.9
Human α-thrombin; [4]
  Human alpha thrombin inhibition, slope normalized to DMSO: 4.8 and 2.4 and 6.7
Human α-thrombin; peptide 1.63E-02 uM
  Human alpha thrombin inhibition, slope normalized to DMSO: 103.7 and 97.9 and 94.4
Human α-thrombin; peptide 1.67E+01 uM
  Human alpha thrombin inhibition, slope normalized to DMSO: -1.3 and 11.2 and 10.7
Human α-thrombin; peptide 2.03E-03 uM
  Human alpha thrombin inhibition, slope normalized to DMSO: 102.2 and 96.9 and 97.7
Human α-thrombin; peptide 2.08E+00 uM
  Human alpha thrombin inhibition, slope normalized to DMSO: 40.1 and 46.6 and 47.4
Human α-thrombin; peptide 2.54E-04 uM
  Human alpha thrombin inhibition, slope normalized to DMSO: 100.3 and 97.2 and 96.3
Human α-thrombin; peptide 2.60E-01 uM
  Human alpha thrombin inhibition, slope normalized to DMSO: 83.3 and 73.2 and 85.9
Human α-thrombin; peptide 3.18E-05 uM
  Human alpha thrombin inhibition, slope normalized to DMSO: 101.8 and 98.5 and 103.1
Human α-thrombin; peptide 3.26E-02 uM
  Human alpha thrombin inhibition, slope normalized to DMSO: 95.9 and 94.2 and 94.5
Human α-thrombin; peptide 3.33E+01 uM
  Human alpha thrombin inhibition, slope normalized to DMSO: 6.5 (2×) and 8.7
Human α-thrombin; peptide 4.07E-03 uM
  Human alpha thrombin inhibition, slope normalized to DMSO: 101.7 and 97.8 and 102.2
Human α-thrombin; peptide 4.17E+00 uM
  Human alpha thrombin inhibition, slope normalized to DMSO: 27.0 and 27.6 and 28.2
Human α-thrombin; peptide 5.09E-04 uM
  Human alpha thrombin inhibition, slope normalized to DMSO: 97.5 and 98.8 and 97.2
Human α-thrombin; peptide 5.21E-01 uM
  Human alpha thrombin inhibition, slope normalized to DMSO: 78.3 and 65.6 and 76.6
Human α-thrombin; peptide 6.36E-05 uM
  Human alpha thrombin inhibition, slope normalized to DMSO: 105.9 and 99.3 and 96.8
Human α-thrombin; peptide 6.51E-02 uM
  Human alpha thrombin inhibition, slope normalized to DMSO: 92.3 and 91.0 and 94.1
Human α-thrombin; peptide 6.67E+01 uM
  Human alpha thrombin inhibition, slope normalized to DMSO: 5.1 and 4.9 and 7.0
Human α-thrombin; peptide 8.14E-03 uM
  Human alpha thrombin inhibition, slope normalized to DMSO: 97.0 (2×) and 91.0
Human α-thrombin; peptide 8.33E+00 uM
  Human alpha thrombin inhibition, slope normalized to DMSO: 19.7 and 13.2 and 20.2
[1]
  remaining at 8 h: 6.3 ± 1.9%
Porcine pancreatin
  SIF stability, Residual peptide Average: 6.32
[2]
  PAMPA permeability: % permeability: 8.6 ± 3.0%
  Papp at 50 μM: 0.575 ×10⁻⁶ cm/s
  Permeability% Average: 8.6%
  Permeability% R1: 11.91%
  Permeability% R3: 7.66%
Porcine pepsin
  SGF stability, Residual peptide Average: 98.52
  SGF stability, Residual peptide: 104.99 and 99.11 and 91.47
  remaining at 8 h: 99 ± 7%
Rat α-thrombin; [4]
  Rat alpha thrombin inhibition, slope normalized to DMSO: 3.3 and 2.8 and 2.1
Rat α-thrombin; peptide 1.67E+01 uM
  Rat alpha thrombin inhibition, slope normalized to DMSO: 6.6 and 5.4 and 5.1
Rat α-thrombin; peptide 2.08E+00 uM
  Rat alpha thrombin inhibition, slope normalized to DMSO: 33.9 and 33.4 and 32.2
Rat α-thrombin; peptide 3.33E+01 uM
  Rat alpha thrombin inhibition, slope normalized to DMSO: 4.4 and 3.4 and 3.5
Rat α-thrombin; peptide 4.17E+00 uM
  Rat alpha thrombin inhibition, slope normalized to DMSO: 19.8 and 18.5 and 18.4
Rat α-thrombin; peptide 6.67E+01 uM
  Rat alpha thrombin inhibition, slope normalized to DMSO: 3.3 and 1.7 and 2.4
Rat α-thrombin; peptide 8.33E+00 uM
  Rat alpha thrombin inhibition, slope normalized to DMSO: 11.8 and 11.2 and 10.2
[3]; [5]
  microsomal CLint: 61 µL/min/mg
[3]; [6]
  microsomal CLint: 51.4 µL/min/mg
[3]; [7]
  microsomal CLint: 62.2 µL/min/mg
[3]; [8]
  half-life: 22.7 min
[3]; [9]
  half-life: 26.9 min
[3]; [10]
  half-life: 22.3 min
[3]; [11]
  half-life: 24 ± 2 min
[3]; [12]
  microsomal CLint: 58 ± 5 µL/min/mg
